Laboratory results taken from US20250032651A1, “[177LU] LUTETIUM-PSMA I&T COMPOSITION AND DOSIMETRY, KIT, METHOD OF MAKING, AND METHOD OF USING THEREOF” (Curium US LLC, priority 2022, published 2025).
Values joined by “and” are separate entries in the source; they are usually repeats but may differ in a detail not shown here. Equal values may be shown once.

Legend:
[1] = Plasma PK: gamma-counted plasma radioactivity, bi-exponential fit; format: in vivo, human; conditions: plasma, Cycle 3
Procedure: Additionally, for PK assessment, whole blood samples were collected at six timepoints (Pre-Infusion, 1 h, 4 h, 24 h, 48 h, and 168 h) and processed to extract plasma. All plasma samples were gamma counted locally for analysis of pharmacokinetics.
PK plasma samples were collected at pre-Infusion, 1 h, 4 h, 24 h, 48 h, and 168 h, and counted for radioactivity. Blood samples were first centrifuged to extract plasma, and then the radioactivity in plasma was counted in a gamma counter.
Whole blood samples were collected as detailed in the protocol Schedule of Events i.e. pre-injection, and then at 1 h, 4 h, 24 h, 48 h, and 168 h post-injection. The samples were first centrifuged to separate plasma, and the radioactivity in the plasma was then measured using a gamma counter. Plasma concentrations were subsequently fitted with a bi-exponential function to derive outcome parameters such as the half-life and clearance rate of the radiopharmaceutical in the plasma.

[2] = Radiochemical purity of ^177Lu-PSMA I&T by HPLC in different formulation compositions, hours post EOS (Example 3); format: physicochemical
Procedure: Product formulation details are described in Table 6.
Radiochemical purity of each solution was followed by HPLC up to 71-93 hours post-radiolabeling.

## O=C([O-])CC[C@H](NC(=O)N[C@@H](CCCCNC(=O)CCCCCCC(=O)NCCCC[C@@H](NC(=O)[C@@H](Cc1ccccc1)NC(=O)[C@@H](Cc1ccc(O)c(I)c1)NC(=O)CC[C@H](C(=O)[O-])N1CCN(CC(=O)[O-])CCN(CC(=O)[O-])CCN(CC(=O)[O-])CC1)C(=O)[O-])C(=O)[O-])C(=O)[O-].[177Lu+3].[H+].[H+].[H+].[H+].[H+] [^177Lu-PSMA I&T, (3S,7S,26R,29R,32R,37R)-29-benzyl-32-(4-hydroxy-3-iodobenzyl)-5,13,20,28,31,34-hexaoxo-37-(4,7,10-tris(carboxymethyl)-1,4,7,10-tetraazacyclododecan-1-yl)-4,6,12,21,27,30,33-heptaazaheptatriacontane-1,3,7,26,37-pentacarboxylic acid; lutetium-177 (III)]
[1]; Mean (n=15)
  Vd: 141.49 L
[1]; individual patient values
  AUC Total: 26.16 fIA/L x min and 29.32 fIA/L x min and 20.20 fIA/L x min (2×) and 36.74 fIA/L x min and 16.57 fIA/L x min and 19.01 fIA/L x min and 17.88 fIA/L x min and 23.21 fIA/L x min and 13.86 fIA/L x min and 24.55 fIA/L x min and 22.70 fIA/L x min and 39.62 fIA/L x min and 28.52 fIA/L x min and 36.09 fIA/L x min and 29.33 fIA/L x min
  Clearance Rate: 7.68 L/h and 6.78 L/h and 7.81 L/h and 4.95 L/h and 14.60 L/h and 18.27 L/h and 9.22 L/h and 8.52 L/h and 25.73 L/h and 11.43 L/h and 13.59 L/h and 3.34 L/h and 5.74 L/h and 3.01 L/h and 4.07 L/h
  Distribution Half-Life: 2.07 h and 1.69 h and 1.88 h and 2.30 h and 2.06 h and 1.64 h and 2.55 h and 2.28 h and 1.85 h and 2.11 h and 3.17 h and 2.61 h and 2.22 h
  Elimination Half-Life: 12.51 h and 11.70 h and 10.92 h and 9.33 h and 9.92 h and 8.16 h and 9.10 h and 9.11 h and 10.32 h and 9.75 h and 9.63 h and 10.67 h and 18.37 h and 14.16 h
  Peak Concentration Value: 0.04 fIA/L (7×) and 0.05 fIA/L (4×) and 0.06 fIA/L (2×) and 0.07 fIA/L and 0.03 fIA/L (2×)
  Time of Peak Concentration: 60.00 min (5×) and 68.00 min and 61.00 min (3×) and 66.00 min (2×) and 55.00 min (2×) and 65.00 min and 59.00 min (2×)
  Vc: 11.98 L and 11.38 L and 21.49 L (2×) and 10.66 L and 16.42 L and 16.53 L and 24.53 L and 17.80 L and 20.07 L and 13.50 L and 14.30 L and 15.13 L and 18.12 L and 16.40 L and 17.66 L
  Vd: 129.70 L and 106.80 L and 105.05 L and 70.92 L and 171.89 L and 239.78 L and 121.21 L and 126.73 L and 361.81 L and 158.71 L and 191.15 L and 51.46 L and 152.16 L and 61.59 L and 73.36 L
[1]; individual patients
  AUC Total: 29.32 fIA/L × min and 20.20 fIA/L × min (2×) and 36.74 fIA/L × min and 16.57 fIA/L × min and 19.01 fIA/L × min and 17.88 fIA/L × min and 23.21 fIA/L × min and 13.86 fIA/L × min and 24.55 fIA/L × min and 22.70 fIA/L × min and 39.62 fIA/L × min and 28.52 fIA/L × min and 36.09 fIA/L × min and 29.33 fIA/L × min and 26.16 fIA/L × min
  Peak Concentration Value: 0.06 fIA/L (2×) and 0.04 fIA/L (7×) and 0.07 fIA/L and 0.03 fIA/L (2×) and 0.05 fIA/L (4×)
  Vc: 11.38 L and 21.49 L (2×) and 10.66 L and 16.42 L and 16.53 L and 24.53 L and 17.80 L and 20.07 L and 13.50 L and 14.30 L and 15.13 L and 18.12 L and 16.40 L and 17.66 L and 11.98 L
  Vd: 106.80 L and 105.05 L and 70.92 L and 171.89 L and 239.78 L and 121.21 L and 126.73 L and 361.81 L and 158.71 L and 191.15 L and 51.46 L and 152.16 L and 61.59 L and 73.36 L and 129.70 L
[1]; max
  AUC Total: 39.62 fIA/L × min
  Peak Concentration Value: 0.07 fIA/L
  Rate Clearance: 25.73 L/h
  Vc: 24.53 L
  Vd: 361.81 L
[1]; median
  AUC Total: 24.55 fIA/L × min
  Peak Concentration Value: 0.04 fIA/L
  Rate Clearance: 7.81 L/h
  Vc: 16.42 L
  Vd: 126.73 L
[1]; min
  AUC Total: 13.86 fIA/L × min
  Peak Concentration Value: 0.03 fIA/L
  Rate Clearance: 3.01 L/h
  Vc: 10.66 L
  Vd: 51.46 L
[1]; n = 15
  AUC Total, Mean: 25.58 fIA/L x min
  AUC Total, max: 39.62 fIA/L x min
  AUC Total, median: 24.55 fIA/L x min
  AUC Total, min: 13.86 fIA/L x min
  Clearance Rate, Mean: 9.65 L/h
  Clearance Rate, max: 25.73 L/h
  Clearance Rate, median: 7.81 L/h
  Clearance Rate, min: 3.01 L/h
  Distribution Half-Life, Mean: 2.17 h
  Distribution Half-Life, max: 3.17 h
  Distribution Half-Life, median: 2.07 h
  Distribution Half-Life, min: 1.64 h
  Elimination Half-Life, Mean: 10.89 h
  Elimination Half-Life, max: 18.37 h
  Elimination Half-Life, median: 9.92 h
  Elimination Half-Life, min: 8.16 h
  Peak Concentration Value, Mean: 0.05 fIA/L
  Peak Concentration Value, max: 0.07 fIA/L
  Peak Concentration Value, median: 0.04 fIA/L
  Peak Concentration Value, min: 0.03 fIA/L
  Time of Peak Concentration: 55.00 min
  Time of Peak Concentration, Mean: 60.67 min
  Time of Peak Concentration, max: 68.00 min
  Time of Peak Concentration, median: 60.00 min
  Vc, Mean: 16.40 L
  Vc, max: 24.53 L
  Vc, median: 16.42 L
  Vc, min: 10.66 L
  Vd, Mean: 141.49 L
  Vd, max: 361.81 L
  Vd, median: 126.73 L
  Vd, min: 51.46 L
[2]; 10 ml high RAC formulation, 42.5 mg/ml ascorbic acid, 0 hours post EOS
  radiochemical purity as measured by HPLC: at least 99%
[2]; 10 ml high RAC formulation, 42.5 mg/ml ascorbic acid, 46 hours post EOS
  radiochemical purity as measured by HPLC: at least 93.3%
[2]; 20 ml low RAC formulation, 31 mg/ml ascorbic acid, 0 hours post EOS
  radiochemical purity as measured by HPLC: at least 99.1%
[2]; about 31 mg/ml ascorbic acid, pH about 4.5, radioactivity concentration about 640 MBq/ml or below
  adequate radiochemical stability (radiochemical purity at least 95%): four
[2]; high RAC solutions
  decrease in radiochemical purity over time at pH 4.5 compared with pH 7: two times slower
[2]; high radioactivity concentration, pH 4.5, 42.5 mg/ml ascorbic acid, 24 hours post EOS
  radiochemical purity: 98.0%
[2]; high radioactivity concentration, pH 4.5, 42.5 mg/ml ascorbic acid, 46 hours post EOS
  radiochemical purity: 96.7%
[2]; high radioactivity concentration, pH 4.5, 42.5 mg/ml ascorbic acid, 67 hours post EOS
  radiochemical purity: 95.3%
[2]; high radioactivity concentration, pH 4.5, 42.5 mg/ml ascorbic acid, 71 hours post EOS
  radiochemical purity: 95.2%
[2]; low RAC solution, pH 4.5, ascorbic acid 31 mg/ml, for 72 hours or longer
  radiochemical stability (radiochemical purity): above 95.0%
[2]; low radioactivity concentration 579 MBq/ml, pH 4.5, 21 mg/ml ascorbic acid, 92 hours post EOS
  radiochemical purity: 96.0%
[2]; low radioactivity concentration 588.5 MBq/ml, pH 4.5, 31 mg/ml ascorbic acid, 20 hours post EOS
  radiochemical purity: 98.7%
[2]; low radioactivity concentration 588.5 MBq/ml, pH 4.5, 31 mg/ml ascorbic acid, 44 hours post EOS
  radiochemical purity: 98.0%
[2]; low radioactivity concentration 588.5 MBq/ml, pH 4.5, 31 mg/ml ascorbic acid, 69 hours post EOS
  radiochemical purity: 97.4%
[2]; low radioactivity concentration 588.5 MBq/ml, pH 4.5, 31 mg/ml ascorbic acid, 93 hours post EOS
  radiochemical purity: 97.0%
[2]; low radioactivity concentration 626 MBq/ml, pH 5.0, 31 mg/ml ascorbic acid, 0 hours post EOS
  radiochemical purity: 99.2%
[2]; low radioactivity concentration 626 MBq/ml, pH 5.0, 31 mg/ml ascorbic acid, 25 hours post EOS
  radiochemical purity: 98.4%
[2]; low radioactivity concentration 626 MBq/ml, pH 5.0, 31 mg/ml ascorbic acid, 47 hours post EOS
  radiochemical purity: 97.3%
[2]; lowered formulation radioactivity concentration, for 72 hours, experiments conducted previously
  radiochemical stability (radiochemical purity): above 95.0%
